pKi: −log10 of the molar value.
How the values were obtained:
Type in all cases: biochemical
cathepsin S = cathepsin S (Homo sapiens, UniProt P25774); test: fluorimetric hydrolysis of Z-Leu-Arg-AMC by purified enzyme, pH […]
cathepsin B = cathepsin B (Homo sapiens, UniProt P07858); test: enzyme selectivity assay with peptide substrate
mouse cathepsin S = mouse cathepsin S (Mus musculus, UniProt O70370); test: fluorimetric hydrolysis of Z-Leu-Arg-AMC by purified enzyme, pH […]

Chain of cathepsin S (P25774 115-331): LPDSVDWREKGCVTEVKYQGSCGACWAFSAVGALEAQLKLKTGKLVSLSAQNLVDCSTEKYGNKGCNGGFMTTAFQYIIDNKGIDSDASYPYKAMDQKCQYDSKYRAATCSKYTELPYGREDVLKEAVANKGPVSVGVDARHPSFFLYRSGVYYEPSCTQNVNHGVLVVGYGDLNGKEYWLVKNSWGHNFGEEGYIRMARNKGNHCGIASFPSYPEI

VBY-999
pKi (cathepsin S): 9.54
pKi (cathepsin B): 6.15
pKi (mouse cathepsin S): 9.16
